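In this assay, cells in 96-well plates receive the compound at five concentrations for 48 hours. Endpoints are linearly interpolated between the surrounding concentrations. Definition used: TGI = concentration required for complete inhibition of growth.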
What was measured:
Assay in all cases: inhibition of tumour cell growth, NCI panel, 48 h
NCI-H226 lung = test system: NCI-H226 lung
EKVX NSCLC = test system: EKVX NSCLC
NCI-H23 lung = test system: NCI-H23 lung
UACC-62 melanoma = test system: UACC-62 melanoma
NCI/ADR-RES ovarian = test system: NCI/ADR-RES ovarian
SK-MEL-2 melanoma = test system: SK-MEL-2 melanoma
SNB-75 CNS = test system: SNB-75 CNS
HL-60(TB) leukemia = test system: HL-60(TB) leukemia
LOX IMVI melanoma = test system: LOX IMVI melanoma
SK-MEL-28 melanoma = test system: SK-MEL-28 melanoma

c1ccc2c(c1)-c1ccccc1C2NC1=NCCO1
TGI (NCI-H226 lung): 56.3 µM | TGI (EKVX NSCLC): > 100 µM | TGI (NCI-H23 lung): > 100 µM | TGI (UACC-62 melanoma): 38.9 µM | TGI (NCI/ADR-RES ovarian): > 100 µM | TGI (SK-MEL-2 melanoma): 39.5 µM | TGI (SNB-75 CNS): 49.5 µM | TGI (HL-60(TB) leukemia): 48.5 µM | TGI (LOX IMVI melanoma): 48.3 µM | TGI (SK-MEL-28 melanoma): 55.7 µM

O=C(Nc1ccc(Cl)cc1)c1cc(S(=O)(=O)N2CCNNC2=O)c(S)cc1Cl
TGI (NCI-H226 lung): > 100 µM | TGI (EKVX NSCLC): > 100 µM | TGI (UACC-62 melanoma): > 100 µM | TGI (NCI/ADR-RES ovarian): > 100 µM | TGI (SK-MEL-2 melanoma): > 100 µM | TGI (SNB-75 CNS): > 100 µM | TGI (HL-60(TB) leukemia): > 100 µM | TGI (LOX IMVI melanoma): > 100 µM | TGI (SK-MEL-28 melanoma): > 100 µM

C[C@@H]1CC[C@@]2(C)[C@H](C)/C(=C\COC(=O)/C=C/c3ccc(O)c(O)c3)CC[C@@]12C
TGI (NCI-H226 lung): 20.8 µM | TGI (EKVX NSCLC): 30.8 µM | TGI (NCI-H23 lung): 23.1 µM | TGI (UACC-62 melanoma): 22.1 µM | TGI (NCI/ADR-RES ovarian): 23.5 µM | TGI (SK-MEL-2 melanoma): 25.4 µM | TGI (SNB-75 CNS): 28 µM | TGI (HL-60(TB) leukemia): 13.4 µM | TGI (LOX IMVI melanoma): 21.5 µM | TGI (SK-MEL-28 melanoma): 24.5 µM

O=C(NC(OCc1ccccc1)(C(F)(F)F)C(F)(F)F)OCc1ccccc1
TGI (NCI-H226 lung): 27.7 µM | TGI (EKVX NSCLC): 28.7 µM | TGI (NCI-H23 lung): 25.8 µM | TGI (UACC-62 melanoma): 27 µM | TGI (NCI/ADR-RES ovarian): 26.3 µM | TGI (SK-MEL-2 melanoma): 28.7 µM | TGI (SNB-75 CNS): 29 µM | TGI (HL-60(TB) leukemia): 40.8 µM | TGI (LOX IMVI melanoma): 27.6 µM | TGI (SK-MEL-28 melanoma): 31.5 µM

CCCCCCCCCCCCCCCC(=O)OC1C(O)C(O)C(O)C(O)C12CO2 (centres undefined)
TGI (NCI-H226 lung): > 100 µM | TGI (EKVX NSCLC): 61.4 µM | TGI (NCI-H23 lung): > 100 µM | TGI (UACC-62 melanoma): > 100 µM | TGI (NCI/ADR-RES ovarian): > 100 µM | TGI (SK-MEL-2 melanoma): > 100 µM | TGI (SNB-75 CNS): 93.2 µM | TGI (HL-60(TB) leukemia): 45.7 µM | TGI (LOX IMVI melanoma): 53.2 µM | TGI (SK-MEL-28 melanoma): > 100 µM

CN1CCc2c(sc3ncn(Nc4ccc(F)cc4)c(=N)c23)C1
TGI (NCI-H226 lung): > 100 µM | TGI (EKVX NSCLC): > 100 µM | TGI (NCI-H23 lung): > 100 µM | TGI (UACC-62 melanoma): > 100 µM | TGI (NCI/ADR-RES ovarian): > 100 µM | TGI (SK-MEL-2 melanoma): > 100 µM | TGI (SNB-75 CNS): > 100 µM | TGI (HL-60(TB) leukemia): > 100 µM | TGI (LOX IMVI melanoma): > 100 µM | TGI (SK-MEL-28 melanoma): > 100 µM

CCN(CC)CCSc1c(C(C)=O)c(=O)n(-c2ccccc2)c(=S)n1-c1ccccc1
TGI (NCI-H226 lung): > 60.3 µM | TGI (EKVX NSCLC): 32.7 µM | TGI (NCI-H23 lung): 33.2 µM | TGI (UACC-62 melanoma): 27.7 µM | TGI (NCI/ADR-RES ovarian): 63.4 µM | TGI (SK-MEL-2 melanoma): 31.6 µM | TGI (SNB-75 CNS): > 85.1 µM | TGI (HL-60(TB) leukemia): 8.71 µM | TGI (LOX IMVI melanoma): 9.04 µM | TGI (SK-MEL-28 melanoma): 33.3 µM

CN(Cc1cnc2nc(N)nc(N)c2n1)c1ccc(C(=O)NCCCC(=O)O)cc1
TGI (NCI-H226 lung): > 100 µM | TGI (EKVX NSCLC): > 100 µM | TGI (NCI-H23 lung): > 100 µM | TGI (UACC-62 melanoma): > 100 µM | TGI (NCI/ADR-RES ovarian): > 100 µM | TGI (SK-MEL-2 melanoma): > 100 µM | TGI (SNB-75 CNS): > 100 µM | TGI (HL-60(TB) leukemia): > 100 µM | TGI (LOX IMVI melanoma): > 100 µM | TGI (SK-MEL-28 melanoma): > 100 µM

COc1ccc(/C=C/C(=O)CCN2CCN(CCC(=O)/C=C/c3ccc(OC)cc3)CC2)cc1
TGI (NCI-H226 lung): 52.8 µM | TGI (EKVX NSCLC): 28.2 µM | TGI (NCI-H23 lung): 30.1 µM | TGI (UACC-62 melanoma): 27.2 µM | TGI (NCI/ADR-RES ovarian): 96 µM | TGI (SK-MEL-2 melanoma): 42 µM | TGI (SNB-75 CNS): 58.6 µM | TGI (HL-60(TB) leukemia): > 100 µM | TGI (LOX IMVI melanoma): 11.1 µM | TGI (SK-MEL-28 melanoma): 28.4 µM

NC1NCCC(=O)N1CCc1c[nH]c2ccccc12 (centres undefined)
TGI (NCI-H226 lung): 66.3 µM | TGI (EKVX NSCLC): 75.5 µM | TGI (NCI-H23 lung): 38.6 µM | TGI (UACC-62 melanoma): 37.6 µM | TGI (NCI/ADR-RES ovarian): 69.4 µM | TGI (SK-MEL-2 melanoma): 35.5 µM | TGI (SNB-75 CNS): 22.9 µM | TGI (HL-60(TB) leukemia): 44.7 µM | TGI (LOX IMVI melanoma): 30.2 µM | TGI (SK-MEL-28 melanoma): 34.9 µM
